Reference: ChEMBL document CHEMBL5104172, “Design, synthesis, and antibacterial activity of derivatives of Tryptophanyl-tRNA synthetase inhibitor indolmycin” (Eur J Med Chem, 2022)
≈ marks a conversion by molar mass, not a printed value.

How the values were obtained:
[1] = tested on: Helicobacter pylori; assay: Antibacterial activity against Helicobacter pylori measured by liquid dilution method; assay type: functional
[2] = tested on: Staphylococcus aureus; assay: Antibacterial activity against methicillin-resistant Staphylococcus aureus MRSA17-3 measured by liquid dilution method; assay type: functional
[3] = tested on: Staphylococcus epidermidis; assay: Antibacterial activity against methicillin-resistant Staphylococcus epidermidis MRSE17-1 measured by liquid dilution method; assay type: functional
[4] = tested on: Staphylococcus aureus; assay: Antibacterial activity against vancomycin-intermediate Staphylococcus aureus measured by liquid dilution method; assay type: functional
[5] = tested on: Staphylococcus epidermidis; assay: Antibacterial activity against methicillin-sensitive Staphylococcus epidermidis MSSE17-1 measured by liquid dilution method; assay type: functional
[6] = tested on: Staphylococcus epidermidis; assay: Antibacterial activity against methicillin-resistant Staphylococcus epidermidis MRSE17-3 measured by liquid dilution method; assay type: functional
[7] = tested on: Staphylococcus aureus; assay: Antibacterial activity against methicillin-sensitive Staphylococcus aureus MSSA17-3 measured by liquid dilution method; assay type: functional
[8] = tested on: Staphylococcus epidermidis; assay: Antibacterial activity against methicillin-resistant Staphylococcus epidermidis MRSE17-2 measured by liquid dilution method; assay type: functional
[9] = tested on: Staphylococcus aureus; assay: Antibacterial activity against methicillin-sensitive Staphylococcus aureus MSSA17-1 measured by liquid dilution method; assay type: functional
[10] = tested on: Staphylococcus aureus; assay: Antibacterial activity against methicillin-resistant Staphylococcus aureus MRSA17-6 measured by liquid dilution method; assay type: functional
[11] = tested on: Staphylococcus aureus; assay: Antibacterial activity against methicillin-resistant Staphylococcus aureus ATCC 43300 measured by liquid dilution method; assay type: functional
[12] = tested on: Staphylococcus aureus; assay: Antibacterial activity against vancomycin-intermediate Staphylococcus aureus ATCC 700788 measured by liquid dilution method; assay type: functional
[13] = tested on: Staphylococcus aureus; assay: Antibacterial activity against methicillin-resistant Staphylococcus aureus MRSA17-1 measured by liquid dilution method; assay type: functional
[14] = tested on: Staphylococcus epidermidis; assay: Antibacterial activity against methicillin-resistant Staphylococcus epidermidis MRSE17-4 measured by liquid dilution method; assay type: functional
[15] = tested on: Enterococcus faecalis; assay: Antibacterial activity against Enterococcus faecalis EFA17-1 measured by liquid dilution method; assay type: functional
[16] = tested on: Staphylococcus epidermidis; assay: Antibacterial activity against methicillin-resistant Staphylococcus epidermidis MRSE17-6 measured by liquid dilution method; assay type: functional
[17] = tested on: Staphylococcus epidermidis; assay: Antibacterial activity against methicillin-sensitive Staphylococcus epidermidis MSSE17-2 measured by liquid dilution method; assay type: functional
[18] = tested on: Staphylococcus aureus; assay: Antibacterial activity against methicillin-resistant Staphylococcus aureus ATCC 33591 measured by liquid dilution method; assay type: functional
[19] = Plasma protein binding in CD-1 mouse plasma incubated for 4 hrs and assessed as unbound fraction at 2 uM measured by LC/MS/MS analysis; assay type: ADME, cell-free
[20] = tested on: Enterococcus faecium; assay: Antibacterial activity against Enterococcus faecium EFM17-1 measured by liquid dilution method; assay type: functional
[21] = tested on: Staphylococcus aureus; assay: Antibacterial activity against methicillin-resistant Staphylococcus aureus MRSA17-5 measured by liquid dilution method; assay type: functional
[22] = tested on: Staphylococcus aureus; assay: Antibacterial activity against vancomycin-intermediate Staphylococcus aureus ATCC 700699 measured by liquid dilution method; assay type: functional
[23] = tested on: Staphylococcus aureus; assay: Antibacterial activity against methicillin-sensitive Staphylococcus aureus MSSA17-2 measured by liquid dilution method; assay type: functional
[24] = tested on: Enterococcus faecalis; assay: Antibacterial activity against Enterococcus faecalis ATCC 29212 measured by liquid dilution method; assay type: functional
[25] = tested on: Staphylococcus aureus; assay: Antibacterial activity against Staphylococcus aureus ATCC 29213 measured by liquid dilution method; assay type: functional
[26] = tested on: Enterococcus faecium; assay: Antibacterial activity against Enterococcus faecium EFM17-2 measured by liquid dilution method; assay type: functional
[27] = Plasma protein binding in CD-1 mouse plasma incubated for 4 hrs at 2 uM measured by LC/MS/MS analysis; assay type: ADME, cell-free; details: read-out: PPB (converted)
[28] = tested on: Staphylococcus aureus; assay: Antibacterial activity against methicillin-resistant Staphylococcus aureus MRSA17-2 measured by liquid dilution method; assay type: functional
[29] = tested on: Staphylococcus epidermidis; assay: Antibacterial activity against methicillin-sensitive Staphylococcus epidermidis MSSE17-3 measured by liquid dilution method; assay type: functional
[30] = Stability in CD-1 mouse whole blood assessed as compound remaining at 2 uM and measured at 30 mins LC-MS/MS analysis; assay type: ADME, tissue-based; details: read-out: Stability
[31] = Stability in CD-1 mouse whole blood assessed as compound remaining at 2 uM and measured at 60 mins LC-MS/MS analysis; assay type: ADME, tissue-based; details: read-out: Stability
[32] = Stability in CD-1 mouse whole blood assessed as compound remaining at 2 uM and measured at 120 mins LC-MS/MS analysis; assay type: ADME, tissue-based; details: read-out: Stability
[33] = Stability in CD-1 mouse whole blood assessed as compound remaining at 2 uM and measured at 10 mins LC-MS/MS analysis; assay type: ADME, tissue-based; details: read-out: Stability

Row | Structure (SMILES) | MIC [2] [µg/mL] | MIC [3] [µg/mL] | MIC [5] [µg/mL] | MIC [6] [µg/mL] | MIC [7] [µg/mL] | MIC [8] [µg/mL] | MIC [9] [µg/mL] | MIC [10] [µg/mL] | MIC [11] [µg/mL] | MIC [12] [µg/mL] | MIC [13] [µg/mL] | MIC [14] [µg/mL] | MIC [15] [µg/mL] | MIC [16] [µg/mL] | MIC [17] [µg/mL] | MIC [18] [µg/mL] | fraction unbound at 4 h, 2 µM [19] | MIC [20] [µg/mL] | MIC [21] [µg/mL] | MIC [22] [µg/mL] | also measured
1 | CNC1=NC(=O)[C@H]([C@H](C)c2c[nH]c3ccccc23)O1 [INDOMYCIN] | 0.25 (≈ 0.972 µM) | 1 (≈ 3.89 µM) | 0.25 (≈ 0.972 µM) | 0.25 (≈ 0.972 µM) | 0.25 (≈ 0.972 µM) | 1 (≈ 3.89 µM) | 0.5 (≈ 1.94 µM) | 0.25 (≈ 0.972 µM) | 0.25 (≈ 0.972 µM) | 0.25 (≈ 0.972 µM) | 0.5 (≈ 1.94 µM) | 1 (≈ 3.89 µM) | > 128 | 1 (≈ 3.89 µM) | 0.5 (≈ 1.94 µM) | 1 (≈ 3.89 µM) | 0.441 | > 128 | 0.5 (≈ 1.94 µM) | 0.125 (≈ 0.486 µM) | MIC90 [1]: 0.031 µg/mL (≈ 0.12 µM); MIC [4]: 0.125 µg/mL (≈ 0.486 µM); MIC [23]: 0.5 µg/mL (≈ 1.94 µM); MIC [24]: > 128 µg/mL; MIC [25]: 0.5 µg/mL (≈ 1.94 µM); MIC [26]: > 128 µg/mL; fraction unbound at 4 h, 2 µM [27]: 0.441; MIC [28]: 0.5 µg/mL (≈ 1.94 µM); MIC [29]: 0.5 µg/mL (≈ 1.94 µM)
2 | CNC1=NC(=O)[C@H]([C@H](C)c2c[nH]c3cccc(C)c23)O1 | 0.5 (≈ 1.84 µM) | 0.5 (≈ 1.84 µM) | 0.125 (≈ 0.461 µM) | 0.125 (≈ 0.461 µM) | 0.5 (≈ 1.84 µM) | 0.5 (≈ 1.84 µM) | 1 (≈ 3.69 µM) | 0.5 (≈ 1.84 µM) | 0.5 (≈ 1.84 µM) | 0.5 (≈ 1.84 µM) | 0.5 (≈ 1.84 µM) | 0.5 (≈ 1.84 µM) | > 128 | 0.5 (≈ 1.84 µM) | 0.25 (≈ 0.921 µM) | 1 (≈ 3.69 µM) | 0.276 | > 128 | 1 (≈ 3.69 µM) | 0.5 (≈ 1.84 µM) | MIC [23]: 1 µg/mL (≈ 3.69 µM); MIC [24]: > 128 µg/mL; MIC [25]: 1 µg/mL (≈ 3.69 µM); MIC [26]: > 128 µg/mL; fraction unbound at 4 h, 2 µM [27]: 0.276; MIC [28]: 0.5 µg/mL (≈ 1.84 µM); MIC [29]: 0.25 µg/mL (≈ 0.921 µM)
3 | CC(C)[N+](C)(CCOC(=O)C1c2ccccc2Oc2ccccc21)C(C)C [PROPANTHELINE BROMIDE] |  |  |  |  |  |  |  |  |  |  |  |  |  |  |  |  |  |  |  |  | remaining at 0.5 h, 2 µM [30]: 82.9%; remaining at 1 h, 2 µM [31]: 64.7%; remaining at 2 h, 2 µM [32]: 38.3%; remaining at 10 min, 2 µM [33]: 93.5%
4 | CNC1=NC(=O)[C@H]([C@H](C)c2c[nH]c3cccc(F)c23)O1 | 0.5 (≈ 1.82 µM) | 2 (≈ 7.27 µM) | 0.5 (≈ 1.82 µM) | 0.5 (≈ 1.82 µM) | 0.5 (≈ 1.82 µM) | 1 (≈ 3.63 µM) | 1 (≈ 3.63 µM) | 0.5 (≈ 1.82 µM) | 1 (≈ 3.63 µM) | 0.5 (≈ 1.82 µM) | 0.5 (≈ 1.82 µM) | 1 (≈ 3.63 µM) | > 128 | 1 (≈ 3.63 µM) | 1 (≈ 3.63 µM) | 1 (≈ 3.63 µM) | 0.2 | > 128 | 1 (≈ 3.63 µM) | 0.5 (≈ 1.82 µM) | MIC [23]: 1 µg/mL (≈ 3.63 µM); MIC [24]: > 128 µg/mL; MIC [25]: 1 µg/mL (≈ 3.63 µM); MIC [26]: > 128 µg/mL; fraction unbound at 4 h, 2 µM [27]: 0.2; MIC [28]: 1 µg/mL (≈ 3.63 µM); MIC [29]: 1 µg/mL (≈ 3.63 µM)
5 | CNC1=NC(=O)[C@H]([C@H](C)c2c[nH]c3cccc(Cl)c23)O1 | 0.5 (≈ 1.71 µM) | 1 (≈ 3.43 µM) | 0.25 (≈ 0.857 µM) | 0.25 (≈ 0.857 µM) | 0.5 (≈ 1.71 µM) | 0.5 (≈ 1.71 µM) | 1 (≈ 3.43 µM) | 1 (≈ 3.43 µM) | 1 (≈ 3.43 µM) | 1 (≈ 3.43 µM) | 1 (≈ 3.43 µM) | 1 (≈ 3.43 µM) | > 128 | 1 (≈ 3.43 µM) | 0.5 (≈ 1.71 µM) | 2 (≈ 6.86 µM) | 0.134 | > 128 | 1 (≈ 3.43 µM) | 0.5 (≈ 1.71 µM) | MIC [23]: 1 µg/mL (≈ 3.43 µM); MIC [24]: > 128 µg/mL; MIC [25]: 2 µg/mL (≈ 6.86 µM); MIC [26]: > 128 µg/mL; fraction unbound at 4 h, 2 µM [27]: 0.134; MIC [28]: 1 µg/mL (≈ 3.43 µM); MIC [29]: 0.5 µg/mL (≈ 1.71 µM)
